From publication PMC9181188 (International Journal of Molecular Sciences, 2022)
In brackets after ≈: the same amount, converted by molar mass. Like-named read-outs stand apart in the source and are kept apart here.

Assays:
SW480 cells = test: MTT assay, SW480; format: cell-based, human; conditions: for IC50: Homo sapiens, SW480, 72 h, human primary colon cancer, 72 h, MTT, mean ± SD; for SI SW480: SI = IC50 for normal cell line (HaCaT)/IC50 cancer cell line
SW620 cells = test: MTT assay, SW620; format: cell-based, human; conditions: for IC50: human metastatic colon cancer, 72 h, MTT, mean ± SD; for SI SW620: SI = IC50 for normal cell line (HaCaT)/IC50 cancer cell line
PC3 cells = test: MTT assay, PC3; format: cell-based, human; conditions: for IC50: human metastatic prostate cancer, 72 h, MTT, mean ± SD; for SI PC3: SI = IC50 for normal cell line (HaCaT)/IC50 cancer cell line
HaCaT cells = test: MTT assay, HaCaT normal cells; format: cell-based; conditions: human immortal keratinocyte cell line, 72 h, mean ± SD
S. aureus NCTC 4163 = test: MIC, twofold microdilution, standard strain; format: cell-based; conditions: Staphylococcus aureus, NCTC4163; 18 h of treatment; read-out: MIC S. aureus NCTC 4163
S. aureus ATCC 25923 = test: MIC, twofold microdilution, standard strain; format: cell-based; conditions: Staphylococcus aureus, ATCC25923; 18 h of treatment; read-out: MIC S. aureus ATCC 25923
S. aureus ATCC 6538 = test: MIC, twofold microdilution, standard strain; format: cell-based; conditions: Staphylococcus aureus, ATCC6538; 18 h of treatment; read-out: MIC S. aureus ATCC 6538
S. aureus ATCC 29213 = test: MIC, twofold microdilution, standard strain; format: cell-based; conditions: Staphylococcus aureus, ATCC29213; 18 h of treatment; read-out: MIC S. aureus ATCC 29213
[1] = system: S. epidermidis ATCC 12228; test: MIC, twofold microdilution, standard strain; format: cell-based; conditions: Staphylococcus epidermidis, ATCC12228; 18 h of treatment; read-out: MIC S. epidermidis ATCC 12228
[2] = system: S. epidermidis ATCC 35984; test: MIC, twofold microdilution, standard strain; format: cell-based; conditions: Staphylococcus epidermidis, ATCC35984; 18 h of treatment; read-out: MIC S. epidermidis ATCC 35984
E. coli ATCC 25922 = test: MIC, twofold microdilution, standard strain; format: cell-based, Escherichia coli; conditions: Escherichia coli, read-out: MIC E. coli ATCC 25922
P. aeruginosa ATCC 27853 = test: MIC, twofold microdilution, standard strain; format: cell-based; conditions: Pseudomonas aeruginosa, ATCC27853; 18 h of treatment; read-out: MIC P. aeruginosa ATCC 27853
[3] = system: S. epidermidis KR 4047 825/19; test: MIC, clinical S. epidermidis strain; format: cell-based; conditions: Staphylococcus epidermidis, KR4047825/19, quinolone-resistant, 18 h of treatment
[4] = system: S. epidermidis KR 4243 829/19; test: MIC, clinical S. epidermidis strain; format: cell-based; conditions: Staphylococcus epidermidis, KR4243829/19, quinolone-susceptible, 18 h of treatment
[5] = system: S. epidermidis KR 4313 834/19; test: MIC, clinical S. epidermidis strain; format: cell-based; conditions: Staphylococcus epidermidis, KR4313834/19, quinolone-susceptible, 18 h of treatment
[6] = system: S. epidermidis KR 4358/2 840/19; test: MIC, clinical S. epidermidis strain; format: cell-based; conditions: Staphylococcus epidermidis, KR4358/2840/19; clinical S. epidermidis, quinolone-susceptible, 18 h of treatment; read-out: MIC KR 4358/2 840/19
[7] = system: S. epidermidis T 5253 845/19; test: MIC, clinical S. epidermidis strain; format: cell-based; conditions: Staphylococcus epidermidis, T5253845/19, quinolone-resistant, 18 h of treatment
[8] = system: S. epidermidis T 5399 848/19; test: MIC, clinical S. epidermidis strain; format: cell-based; conditions: Staphylococcus epidermidis, T5399848/19, quinolone-susceptible, 18 h of treatment
[9] = system: S. epidermidis T 5501 851/19; test: MIC, clinical S. epidermidis strain; format: cell-based; conditions: Staphylococcus epidermidis, T5501851/19, read-out: MIC T 5501 851/19, quinolone-susceptible, 18 h of treatment
M. tuberculosis H37Rv = test: MABA (microplate Alamar blue assay) MIC; format: cell-based; conditions: Mycobacterium tuberculosis, 336 h, read-out: MIC M. tuberculosis H37Rv
[10] = system: M. tuberculosis Spec. 192 (Sensitive to Tuberculostatics); test: MABA (microplate Alamar blue assay) MIC; format: cell-based; conditions: Mycobacterium tuberculosis, 336 h, read-out: MIC M. tuberculosis Spec. 192 (Sensitive to Tuberculostatics)
[11] = target: T1, S. aureus topoisomerase IV (Staphylococcus aureus, UniProt P0C1S7+P0C1U9); test: S. aureus topoisomerase IV decatenation assay; format: biochemical
T1 construct: purchased Inspiralis
T1 sequence (P0C1U9 whole entry): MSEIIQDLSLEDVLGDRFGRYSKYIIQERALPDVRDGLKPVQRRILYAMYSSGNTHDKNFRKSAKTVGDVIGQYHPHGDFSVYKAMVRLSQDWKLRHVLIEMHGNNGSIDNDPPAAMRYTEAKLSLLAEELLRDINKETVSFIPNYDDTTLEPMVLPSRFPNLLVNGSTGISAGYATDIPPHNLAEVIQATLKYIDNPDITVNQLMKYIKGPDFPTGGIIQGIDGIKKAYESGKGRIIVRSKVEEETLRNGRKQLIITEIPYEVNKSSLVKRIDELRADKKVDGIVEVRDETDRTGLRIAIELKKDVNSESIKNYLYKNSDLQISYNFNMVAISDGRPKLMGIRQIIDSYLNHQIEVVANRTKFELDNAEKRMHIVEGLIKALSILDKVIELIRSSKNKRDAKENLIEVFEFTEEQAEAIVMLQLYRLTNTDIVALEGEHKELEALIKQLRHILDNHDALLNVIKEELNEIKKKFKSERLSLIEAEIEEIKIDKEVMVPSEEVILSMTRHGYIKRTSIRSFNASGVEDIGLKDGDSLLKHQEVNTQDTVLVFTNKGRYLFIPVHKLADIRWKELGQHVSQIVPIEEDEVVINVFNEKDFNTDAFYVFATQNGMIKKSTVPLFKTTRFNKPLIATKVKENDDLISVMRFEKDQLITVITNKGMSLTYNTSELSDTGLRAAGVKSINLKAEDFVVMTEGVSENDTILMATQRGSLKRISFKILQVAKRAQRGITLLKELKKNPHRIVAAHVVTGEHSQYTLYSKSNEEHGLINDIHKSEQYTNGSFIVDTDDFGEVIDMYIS
T1 sequence (P0C1S7 whole entry): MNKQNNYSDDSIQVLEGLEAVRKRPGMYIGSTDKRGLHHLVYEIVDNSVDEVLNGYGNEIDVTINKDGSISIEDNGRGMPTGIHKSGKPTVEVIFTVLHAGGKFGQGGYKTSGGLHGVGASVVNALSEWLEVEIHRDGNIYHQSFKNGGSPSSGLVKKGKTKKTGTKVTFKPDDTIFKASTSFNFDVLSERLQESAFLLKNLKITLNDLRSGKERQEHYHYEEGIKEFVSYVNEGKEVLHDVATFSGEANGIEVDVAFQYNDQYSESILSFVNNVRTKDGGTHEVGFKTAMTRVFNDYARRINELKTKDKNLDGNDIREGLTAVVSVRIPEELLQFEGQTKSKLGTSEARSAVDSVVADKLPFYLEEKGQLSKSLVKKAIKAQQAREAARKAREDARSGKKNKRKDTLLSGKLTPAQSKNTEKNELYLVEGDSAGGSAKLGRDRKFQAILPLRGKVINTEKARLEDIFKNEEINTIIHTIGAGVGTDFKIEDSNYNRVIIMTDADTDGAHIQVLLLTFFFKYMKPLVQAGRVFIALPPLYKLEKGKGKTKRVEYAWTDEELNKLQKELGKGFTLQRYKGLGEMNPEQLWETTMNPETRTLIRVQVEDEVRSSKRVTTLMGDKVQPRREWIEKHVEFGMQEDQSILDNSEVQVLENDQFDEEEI
Procedure: The assay was performed using S. aureus topoisomerase IV […] kit (Inspiralis). Kinetoplast DNA (kDNA) was the substrate for topoisomerase IV.

[12] = system: standard staphylococci (S. aureus, S. epidermidis); test: MIC, standard Gram-positive strains as a group; format: cell-based; conditions: Staphylococcus aureus; range over standard Gram-positive strains; read-out: MIC against standard staphylococci
[13] = system: quinolone-susceptible clinical coagulase-negative staphylococci; test: MIC, quinolone-susceptible clinical isolates as a group; format: cell-based; conditions: Staphylococcus epidermidis, 18 h; five quinolone-susceptible isolates; read-out: MIC against quinolone-susceptible clinical isolates
S. aureus DNA gyrase = S. aureus DNA gyrase (Staphylococcus aureus, UniProt P0A0K8+P20831); test: biochemical
Sequence of S. aureus DNA gyrase (P20831 whole entry): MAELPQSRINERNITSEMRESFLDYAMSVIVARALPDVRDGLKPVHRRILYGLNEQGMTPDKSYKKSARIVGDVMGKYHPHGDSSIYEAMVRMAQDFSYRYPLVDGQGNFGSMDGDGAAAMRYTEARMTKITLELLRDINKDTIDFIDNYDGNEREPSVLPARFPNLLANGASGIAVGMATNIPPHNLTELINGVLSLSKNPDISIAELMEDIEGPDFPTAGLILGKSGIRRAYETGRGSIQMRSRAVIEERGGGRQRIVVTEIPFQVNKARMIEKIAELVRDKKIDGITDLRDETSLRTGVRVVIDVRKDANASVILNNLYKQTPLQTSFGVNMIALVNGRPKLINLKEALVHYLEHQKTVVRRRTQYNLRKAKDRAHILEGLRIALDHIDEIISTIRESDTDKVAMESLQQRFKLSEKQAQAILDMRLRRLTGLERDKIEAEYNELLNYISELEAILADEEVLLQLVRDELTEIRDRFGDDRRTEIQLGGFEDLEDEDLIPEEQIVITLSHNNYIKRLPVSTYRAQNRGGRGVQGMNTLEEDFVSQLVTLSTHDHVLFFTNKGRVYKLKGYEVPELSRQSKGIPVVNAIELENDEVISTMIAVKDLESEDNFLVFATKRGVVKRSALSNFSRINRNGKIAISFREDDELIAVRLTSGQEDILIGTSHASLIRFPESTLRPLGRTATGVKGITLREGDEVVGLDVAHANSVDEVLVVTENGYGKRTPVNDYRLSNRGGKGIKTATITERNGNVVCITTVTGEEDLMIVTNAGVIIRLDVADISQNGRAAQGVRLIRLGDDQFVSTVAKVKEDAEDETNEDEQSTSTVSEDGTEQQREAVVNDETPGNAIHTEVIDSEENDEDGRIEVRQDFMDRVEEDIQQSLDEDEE
Sequence of S. aureus DNA gyrase (P0A0K8 whole entry): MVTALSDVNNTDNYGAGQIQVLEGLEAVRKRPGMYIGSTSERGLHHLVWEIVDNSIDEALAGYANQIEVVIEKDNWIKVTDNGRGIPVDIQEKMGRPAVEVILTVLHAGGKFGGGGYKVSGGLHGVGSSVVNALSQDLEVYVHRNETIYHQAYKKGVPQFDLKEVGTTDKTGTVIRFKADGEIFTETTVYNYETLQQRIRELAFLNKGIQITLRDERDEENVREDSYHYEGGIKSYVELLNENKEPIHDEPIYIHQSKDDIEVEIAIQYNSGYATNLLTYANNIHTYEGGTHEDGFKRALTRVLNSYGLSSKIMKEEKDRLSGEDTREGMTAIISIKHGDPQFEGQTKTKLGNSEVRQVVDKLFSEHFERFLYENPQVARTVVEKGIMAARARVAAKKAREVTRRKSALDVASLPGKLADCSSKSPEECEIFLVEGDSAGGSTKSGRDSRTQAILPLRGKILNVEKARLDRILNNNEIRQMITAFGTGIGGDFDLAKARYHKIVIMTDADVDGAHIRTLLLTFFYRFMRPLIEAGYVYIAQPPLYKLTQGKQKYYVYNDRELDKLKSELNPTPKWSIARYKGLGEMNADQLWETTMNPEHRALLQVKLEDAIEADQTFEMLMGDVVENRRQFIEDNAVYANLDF
Procedure: The assay was performed using S. aureus DNA Gyrase Supercoiling kit (Inspiralis). […] Samples were vortexed, centrifuged, and 20 µL of the aqueous phase of each sample was loaded onto a 1% agarose gel and left for 30 min prior to electrophoresis to allow diffusion of salt. Electrophoresis was conducted in TAE buffer for 3 h at 50 V. Gels were stained with ethidium bromide and visualized under UV light in a transilluminator (ChemiDoc MP, Bio Rad, Warsaw, Poland).

M. tuberculosis strains = test: MABA MIC, mycobacterial strains as a group; format: cell-based; conditions: Mycobacterium tuberculosis, read-out: MIC antimycobacterial (strain not specified)

`C/C=C/C=C/C(=O)N1CCCC2CN(c3c(F)cc4c(=O)c(C(=O)O)cn(C5CC5)c4c3OC)CC21` (stereo not shown) [Compound 2m, 1-Cyclopropyl-6-fluoro-7-{1-(2E,4E)-hexa-2,4-dienoyl-octahydro-pyrrolo[3,4-b]pyridin-6-yl}-8-methoxy-4-oxo-1,4-dihydro-quinoline-3-carboxylic acid] was tested. Which IC50 (SW480 cells) did it give?
The IC50 was 6.3 ± 1.2 µM.

What about the “SI SW480” value (SW480 cells) of the same compound?
The value was 15.7.

And the IC50 (SW620 cells; Homo sapiens, SW-620, 72 h)?
The IC50 was < 5 µM.

And the “SI SW620” value (SW620 cells)?
Its value is 25.4.

What about the IC50 (SW620 cells) of the same compound?
The IC50 was 3.9 ± 1.1 µM.

And the IC50 (PC3 cells; Homo sapiens, PC-3, 72 h)?
The IC50 was < 5 µM.

And the “SI PC3” value (PC3 cells)?
The value was 36.7.

What about the IC50 (PC3 cells) of the same compound?
Its IC50 is 2.7 ± 1.1 µM.

What about the IC50 (HaCaT cells) of the same compound?
The IC50 was 99.1 ± 1.8 µM.

And the MIC (S. aureus NCTC 4163)?
Its MIC is 1 µg/mL (≈ 2.02 µM).

And the MIC (S. aureus ATCC 25923)?
Its MIC is 1 µg/mL (≈ 2.02 µM).

And the MIC (S. aureus ATCC 6538)?
Its MIC is 1 µg/mL (≈ 2.02 µM).

What about the MIC (S. aureus ATCC 29213) of the same compound?
The MIC was 1 µg/mL (≈ 2.02 µM).

And the MIC [1]?
The MIC was 2 µg/mL (≈ 4.04 µM).

What about the MIC [2] of the same compound?
Its MIC is 1 µg/mL (≈ 2.02 µM).

And the MIC (E. coli ATCC 25922; ATCC25922, 18 h of treatment)?
The MIC was 64 µg/mL (≈ 129 µM).

And the MIC (P. aeruginosa ATCC 27853)?
The MIC was > 512 µg/mL.

And the MIC [3]?
The MIC was 32 µg/mL (≈ 64.6 µM).

What about the MIC [4] of the same compound?
Its MIC is 1 µg/mL (≈ 2.02 µM).

And the MIC [5]?
Its MIC is 1 µg/mL (≈ 2.02 µM).

And the MIC [6]?
Its MIC is 1 µg/mL (≈ 2.02 µM).

What about the MIC [7] of the same compound?
Its MIC is 32 µg/mL (≈ 64.6 µM).

What about the MIC [8] of the same compound?
The MIC was 0.5 µg/mL (≈ 1.01 µM).

And the MIC [9]?
Its MIC is 2 µg/mL (≈ 4.04 µM).

What about the MIC (M. tuberculosis H37Rv; 2 weeks of treatment) of the same compound?
Its MIC is 32 µg/mL (≈ 64.6 µM).

And the MIC ([10]; 2 weeks of treatment)?
The MIC was 32 µg/mL (≈ 64.6 µM).

And the IC50 [11]?
The IC50 was > 129 µM.

And the MIC [12]?
The MIC was 0.5 to 2 µg/mL (≈ 1.01 to 4.04 µM).

What about the MIC [13] of the same compound?
Its MIC is 0.5 to 1 µg/mL (≈ 1.01 to 2.02 µM).

What about the IC50 (S. aureus DNA gyrase) of the same compound?
The IC50 was > 129 µM.

What does the source list for `COc1c(N2CC3CCCN(C(=O)/C=C(\C)CCC=C(C)C)C3C2)c(F)cc2c(=O)c(C(=O)O)cn(C3CC3)c12` (stereo not shown) [Compound 3m, 1-Cyclopropyl-7-{1-(2E)-(3,7-dimethyl-octa-2,6-dienoyl)-octahydro-pyrrolo[3,4-b]pyridin-6-yl}-6-fluoro-8-methoxy-4-oxo-1,4-dihydro-quinoline-3-carboxylic acid]?
IC50 (SW480 cells): 26.7 ± 1.4 µM; SI SW480 (SW480 cells): 3.0; IC50 (SW620 cells; Homo sapiens, SW-620, 72 h): 38.2 ± 4.1 µM; SI SW620 (SW620 cells): 2.1; IC50 (PC3 cells; Homo sapiens, PC-3, 72 h): 23.5 ± 4.7 µM; SI PC3 (PC3 cells): 3.5; IC50 (HaCaT cells): 81.2 ± 2.6 µM; MIC (S. aureus NCTC 4163): 8 µg/mL (≈ 14.5 µM); MIC (S. aureus ATCC 25923): 8 µg/mL (≈ 14.5 µM); MIC (S. aureus ATCC 6538): 8 µg/mL (≈ 14.5 µM); MIC (S. aureus ATCC 29213): 8 µg/mL (≈ 14.5 µM); MIC [1]: 16 µg/mL (≈ 29 µM); MIC [2]: 8 µg/mL (≈ 14.5 µM); MIC (E. coli ATCC 25922; ATCC25922, 18 h): 128 µg/mL (≈ 232 µM); MIC (P. aeruginosa ATCC 27853): > 64 µg/mL; MIC [3]: 16 µg/mL (≈ 29 µM); MIC [4]: 8 µg/mL (≈ 14.5 µM); MIC [5]: 16 µg/mL (≈ 29 µM); MIC [6]: 8 µg/mL (≈ 14.5 µM); MIC [7]: 8 µg/mL (≈ 14.5 µM); MIC [8]: 8 µg/mL (≈ 14.5 µM); MIC [9]: 16 µg/mL (≈ 29 µM); MIC (M. tuberculosis H37Rv): 128 µg/mL (≈ 232 µM); MIC [10]: 128 µg/mL (≈ 232 µM); IC50 [11]: > 116 µM; MIC [12]: 8 to 32 µg/mL (≈ 14.5 to 58 µM); MIC (M. tuberculosis strains): ≥ 128 µg/mL; IC50 (S. aureus DNA gyrase): > 116 µM
